Patent publication US20120046331A1, “Antifungal Agents and Uses Thereof” (priority 2010, published 2012)
In brackets after ≈: the same amount, converted by molar mass. Entries after “also recorded” stand apart in the source; their conditions may differ.

Key:
E. floccosum = assay: Checkerboard combination testing of compound 8 with antifungals, FIC (Example 1); type: cell-based, Epidermophyton floccosum; conditions: in combination with Cpd 8, one value per clinical isolate (Strain # 1-6)
Protocol: (§1) This example describes the in vitro activity of combinations of compounds according to the present invention and antifungal agents against a collection of dermatophytic fungal pathogens. Antifungal susceptibility testing was adapted from the CLSI M38-A broth microdilution method for dermatophytes (NCCLS-M38-A2 2008). Combination testing was performed by checkerboard method (with compound 8 in combination with fluconazole, itraconazole or terbinafine). A total of 30 isolates of 5 different fungal species were tested in the combination test: 6 isolates each of Trichophyton tonsurans, Trichophyton rubrum, Epidermophyton floccosum, Trichophyton mentagrophytes and Microsporum canis. Clinical isolates were obtained by the Laboratory of Dr. M. Ghannoum at Case Western University.
Synergy was assessed using the fractional inhibitory concentration (FIC), an interaction coefficient, with the following definitions:
The fold reduction of the itraconazole minimum inhibitory concentration (MIC) was also evaluated.

T. rubrum = assay: MIC testing, modified CLSI M38-A2 for dermatophytes (Example 2); type: cell-based, Trichophyton rubrum; conditions: Trichophyton rubrum
[1] = system: panel of clinical isolates of 5 common dermatophytic fungi; assay: Checkerboard combination testing, whole panel (Example 1); type: cell-based; conditions: terbinafine alone; reason why synergy could not be determined
Protocol: as §1
Synergy was assessed using the fractional inhibitory concentration (FIC), an interaction coefficient, with the following definitions: […]

T. tonsurans = assay: MIC testing, modified CLSI M38-A2 for dermatophytes (Example 2); type: cell-based; conditions: n = 5 strains
Protocol: (§2) MIC testing was performed according to the modification of the CLSI M38-A2 standard for dermatophytes developed at the Center (CLSI. Reference Method for Broth Dilution Antifungal Susceptibility Testing of Filamentous Fungi; Approved Standard-Second Edition. CLSI document M38-A2 [ISBN 1-56238-668-9]. CLSI, 940 West Valley Road, Suite 1400, Wayne, Pa. 19087-1898 USA, 2008; Ghannoum M A, et al. Intra- and Interlaboratory Study of a Method for Testing the Antifungal Susceptibilities of Dermatophytes. 2004 J Clin Microbiol 42:(7): 2977-2979). Compound 8 and fluconazole were tested in combination using a checkerboard microdilution method. The interaction between Compound 8 and fluconazole was determined by FIC Index, or Fractional Inhibitory Concentration Index, which assigns a numerical value to the interaction of the two antifungals.

T. mentagrophytes = assay: as above; type: cell-based; conditions: n = 5 strains
Protocol: as §2

MIC (E. floccosum; Epidermophyton floccosum, read-out: Itraconazole MIC with Cpd 8) [ng/mL] | Itraconazole MIC with Cpd 8 (E. floccosum) [ng/mL] | MIC50 (T. rubrum; lowest concentration to inhibit 50% of the strains tested, n = 20, read-out: MIC50) [ng/mL] | MIC90 (T. rubrum; n = 20 strains) [ng/mL] | MIC50 (T. tonsurans; Trichophyton tonsurans) [ng/mL] | MIC90 (T. tonsurans; Trichophyton tonsurans) [ng/mL] | MIC Range (T. tonsurans) [ng/mL] | MIC50 (T. mentagrophytes; Trichophyton mentagrophytes) [ng/mL] | MIC90 (T. mentagrophytes; Trichophyton mentagrophytes) [ng/mL] | MIC Range (T. mentagrophytes) [ng/mL] | Compound | Potency (MIC) of terbinafine, in words [1]
15 | 8 | – | – | – | – | – | – | – | – | CCC(C)n1ncn(-c2ccc(N3CCN(c4ccc(OCC5COC(Cn6cncn6)(c6ccc(Cl)cc6Cl)O5)cc4)CC3)cc2)c1=O (centres unmarked) [Itraconazole, itraconazole, reference compound] | –
– | – | 16 (≈ 0.0549 µM) | 8000 (≈ 27.5 µM) | 2 | 2 | 1 to 16 | 8 | 16 | 4 to 16 | CN(C/C=C/C#CC(C)(C)C)Cc1cccc2ccccc12 [Terbinafine, terbinafine] | extremely low MIC; also recorded: † = synergy could not be determined because of the high potency (extremely low MIC) of terbinafine
